Data taken from patent publication US11925611B2, “Use of ZT-1A and analogs thereof to prevent and/or treat neurodegenerative and neurocognitive disorders” (United States Government as Represented by the Department …, priority 2021, dated 2024).
Like-named read-outs stand apart in the source and are kept apart here.

Key:
Type in all cases: cell-based
[1] = test system: NKCC1; test: Cellular inhibition of NKCC1 phosphorylation (pThr203); settings: n = 3, — = no inhibition
Excerpt: (§1) 8. Cellular Activity Profile of Inhibitors with the Salicyclic Amide
(§2) A list of the compounds evaluated for their ability to inhibit phosphorylation of SPAK/NKCC1/KCC3 activity is illustrated in Table 1 below.

[2] = test system: KCC3; test: Cellular inhibition of KCC3 phosphorylation (pThr991, pThr1048); settings: Isotonic conditions; n = 3; — = no inhibition; read-out: KCC3 pThr1048 (μM) Iso
Excerpt: as §1, §2

[3] = molecular target: SPAK (Homo sapiens, UniProt Q9UEW8); test: Cellular inhibition of SPAK phosphorylation (pSer373); settings: 50% inhibition of phosphorylation, n = 3, — = no inhibition
Excerpt: as §1, §2

[4] = Hypotonic conditions, read-out: NKCC1 pThr203 (μM) hypo
[5] = Isotonic conditions, read-out: NKCC1 pThr203 (μM) Iso
[6] = Hypotonic conditions, read-out: SPAK pSer373 (μM) hypo
[7] = Isotonic conditions, read-out: SPAK pSer373 (μM) Iso

IC50 [1, 4] [µM] | IC50 [1, 5] [µM] | IC50 [2] [µM] | IC50 [3, 6] [µM] | IC50 [3, 7] [µM] | SMILES
3 | 1 | 3 | 3 | 3 | Cc1cc(C(C#N)c2ccc(Cl)cc2)c(Cl)cc1NC(=O)c1cc(Cl)cc(Cl)c1O (stereo not drawn) [1f]
3 | 1 | 3 | 3 | 3 | Cc1cc(C(C#N)c2ccc(Cl)cc2)c(Cl)cc1NC(=O)c1cccc(F)c1O (stereo not drawn) [1h(ZT-06-039-01)]
3 | 1 | 3 | 3 | 3 | Cc1cc(C(C#N)c2ccc(Cl)cc2)c(Cl)cc1NC(=O)c1ccccc1N (stereo not drawn) [1d(ZT-06-022-01)]
3 | 1 | 3 | 3 | 3 | Cc1cc(C(C#N)c2ccc(Cl)cc2)c(Cl)cc1NC(=O)c1cc(F)ccc1O (stereo not drawn) [1g(ZT-06-055-01)]
3 | 1 | 3 | 3 | 3 | Cc1cc(C(C#N)c2ccc(Cl)cc2)c(Cl)cc1NC(=O)c1ccccc1S (stereo not drawn) [1c (ZT-05-037-01)]
1 | 3 | 3 | 3 | 3 | Cc1cc(C(C#N)c2ccc(Cl)cc2)c(Cl)cc1NC(=O)c1ccccc1O (stereo not drawn) [1b]
